Target: T1, CYP2B6 (Homo sapiens, UniProt P20813)
T1 construct: with pooled human liver microsomes; from tissue; host or cells: pooled human liver microsomes
T1 sequence (P20813 1-491): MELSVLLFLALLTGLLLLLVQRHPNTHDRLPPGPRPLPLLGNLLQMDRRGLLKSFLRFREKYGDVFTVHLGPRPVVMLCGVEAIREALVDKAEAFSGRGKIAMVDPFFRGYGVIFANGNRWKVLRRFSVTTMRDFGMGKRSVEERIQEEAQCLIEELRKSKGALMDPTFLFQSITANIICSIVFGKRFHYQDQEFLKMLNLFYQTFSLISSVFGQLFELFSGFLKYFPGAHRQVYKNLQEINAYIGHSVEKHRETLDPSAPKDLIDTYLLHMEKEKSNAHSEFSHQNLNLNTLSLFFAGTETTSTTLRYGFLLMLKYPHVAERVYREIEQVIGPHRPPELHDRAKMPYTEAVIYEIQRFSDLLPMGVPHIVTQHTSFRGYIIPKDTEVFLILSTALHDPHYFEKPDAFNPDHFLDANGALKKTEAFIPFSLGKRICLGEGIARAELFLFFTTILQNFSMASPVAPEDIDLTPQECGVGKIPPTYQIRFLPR
Experiment: Cytochrome P450 inhibition in human liver microsomes using LC-MS/MS, CYP2B6
Assay type: in vitro ADME
Protocol: In IC50 shift experiments, CK (0.2 μL prepared in DMSO) was pre-incubated for 30 min at 37° C., at 8 different concentrations, with pooled human liver microsomes (0.1-1 mg/mL, depending on which enzyme was assessed) in the absence or presence of 1 mM NADPH in 100 μL of potassium phosphate buffer (100 mM, pH 7.4) and MgCl2 (2.5 mM). After the pre-incubation, a substrate mixture containing a probe substrate in 100 μL of potassium phosphate buffer (100 mM, pH 7.4), MgCl2 (2.5 mM), and NADPH (1 mM) was added for measurement of the corresponding P450 activities. Incubations were terminated by addition of 200 μL methanol. Samples were then extracted and centrifuged and the supernatant was subjected to validated LC-MS/MS analysis.

`CC(C)=CCC[C@](C)(O[C@@H]1O[C@H](CO)[C@@H](O)[C@H](O)[C@H]1O)[C@H]1CC[C@]2(C)[C@@H]1[C@H](O)C[C@@H]1[C@@]3(C)CC[C@H](O)C(C)(C)[C@@H]3CC[C@]12C` [CK, Ginsenoside compound K] was tested. Which IC50 (pooled human liver microsomes, substrate Bupropion) did it give?
The IC50 was 14.8 µM.

And the “IC50 shift (fold difference)” value (ratio of IC50 with −NADPH to IC50 with +NADPH in the 30 min pre-incubation)?
The value was 1.08 fold.

Source: US20260199564A1, “METHOD OF PREVENTING BLOOD COAGULATION AND DRUG-ELUTING IMPLANT FOR PERCUTANEOUS CORONARY INTERVENTION” (priority 2023, published 2026)
